The values that follow come from article PMC6036094 (International Journal of Medical Sciences, 2018).

Where two headings read alike, the source gives them in different places.

The format of this data set is in vivo, Male Wistar rats. The conditions noted are these: for concentration at 1 h / concentration at 8 h / concentration at 24 h: male, Wistar, rat, po; for Skin tissue-to-plasma concentration ratio / Concentration in kidneys / Concentration in small intestine / Kidney-to-plasma concentration ratio / Small intestine-to-plasma concentration ratio / Concentration in skin tissue: mean ± SD.

Where [1] appears, read: 1 to 24 h after oral administration.

For the compound `CCc1ccc(Cc2ccc3c(c2)[C@]2(OC3)O[C@H](CO)[C@@H](O)[C@H](O)[C@H]2O)cc1` [Tofogliflozin, tofogliflozin], the “Time course of kidney-to-plasma concentration ratio” value under setting [1] is listed as “increased time-dependently”. For the setting “kidneys”, this compound came in with a concentration at 1 h of 848 ± 116 ng/g, a concentration at 8 h of 492 ± 101 ng/g and a concentration at 24 h of 201 ± 42.9 ng/g. For the setting “skin tissue”, this compound showed a concentration at 1 h of 103 ± 29.2 ng/g and a concentration at 8 h of 27.1 ± 3.2 ng/g. For the same compound, where the note is “small intestine”, the concentration at 1 h is 1360 ± 513 ng/g and the concentration at 8 h was 250 ± 114 ng/g.
With `CCOc1ccc(Cc2cc([C@@H]3O[C@H](CO)[C@@H](O)[C@H](O)[C@H]3O)ccc2Cl)cc1` [Dapagliflozin, dapagliflozin], for the setting “kidneys”, the concentration at 1 h was 1030 ± 521 ng/g, the concentration at 8 h amounted to 531 ± 191 ng/g and the concentration at 24 h came to 170 ± 40.2 ng/g. Under “skin tissue”, this compound registered a concentration at 1 h of 42.6 ± 24.7 ng/g and a concentration at 8 h of 13 ± 5 ng/g. For the setting “small intestine”, this compound showed a concentration at 1 h of 37.9 ± 10.3 ng/g and a concentration at 8 h of 19.7 ± 6.7 ng/g.
Turning to `OC[C@H]1O[C@@H](c2ccc(F)c(Cc3cc4ccccc4s3)c2)[C@H](O)[C@@H](O)[C@@H]1O` [Ipragliflozin, ipragliflozin], the “Time course of kidney-to-plasma concentration ratio” value under setting [1] is “tended to increase”. Under setting [1], the “Time course of skin tissue-to-plasma concentration ratio” value is listed as “increased in a time-dependent manner”. Besides, the “Skin tissue-to-plasma concentration ratio” value was found to be 0.45±0.20 (1 h after oral administration); 0.45 ± 0.20 (1 h after oral administration, listed as ipragliflozin); 5.82±3.66 (24 h after oral administration); 5.82 ± 3.66 (24 h after oral administration, listed as ipragliflozin). Also, the concentration at 1 h by setting is: (kidneys) 1420 ± 405 ng/g; (skin tissue) 152 ± 53.4 ng/g; (small intestine) 730 ± 377 ng/g. The concentration at 8 h is 1090 ± 456 ng/g (kidneys), 168 ± 28.7 ng/g (skin tissue) and 348 ± 105 ng/g (small intestine). Further, the concentration at 24 h reads like this: (kidneys) 301 ± 86.9 ng/g; (skin tissue, 1 mg/kg) 90.6 ± 38.9 ng/g.
In the case of `Cc1ccc([C@@H]2O[C@H](CO)[C@@H](O)[C@H](O)[C@H]2O)cc1Cc1ccc(-c2ccc(F)cc2)s1` [Canagliflozin, canagliflozin], for the setting “1 h after oral administration”, the Concentration in kidneys turned out to be 802.7 ± 269.2 ng/g, the “Concentration in small intestine” value stood at 2925.2 ± 1074.2 ng/g, the Kidney-to-plasma concentration ratio turned out to be 3.69±2.84 and the “Skin tissue-to-plasma concentration ratio” value amounted to 0.18±0.18. Moreover, under “1 h after oral administration”, the “Small intestine-to-plasma concentration ratio” value was 12.93±9.88. For the same compound, under “8 h after oral administration”, the Concentration in kidneys was found to be 1014.1 ± 306.0 ng/g, the “Concentration in skin tissue” value turned out to be 82.6 ± 22.9 ng/g, the “Concentration in small intestine” value came out at 440.1 ± 117.2 ng/g and the Kidney-to-plasma concentration ratio is 2.11±0.54. Further, under “8 h after oral administration”, the “Skin tissue-to-plasma concentration ratio” value came to 0.17±0.03 and the “Small intestine-to-plasma concentration ratio” value is 0.92±0.20. Moreover, where the note is “24 h after oral administration”, the Concentration in kidneys amounted to 636.2 ± 222.5 ng/g, the “Concentration in skin tissue” value was 20.1 ± 11.6 ng/g, the “Concentration in small intestine” value was found to be 325.9 ± 218.0 ng/g and the Kidney-to-plasma concentration ratio amounted to 7.55±2.62. Also, for the setting “24 h after oral administration”, the “Skin tissue-to-plasma concentration ratio” value was determined as 0.26±0.20 and the “Small intestine-to-plasma concentration ratio” value is 4.05±2.83.
`CCOc1ccc(Cc2cc([C@@H]3S[C@H](CO)[C@@H](O)[C@H](O)[C@H]3O)c(OC)cc2C)cc1` [Luseogliflozin, luseogliflozin]: the concentration at 1 h (kidneys) worked out at 94.9 ± 74.3 ng/g and the concentration at 1 h (small intestine) amounted to 251 ± 178 ng/g. Where the note is “kidneys”, this compound returned a concentration at 8 h of 80.1 ± 51.7 ng/g.
